Laboratory results reported in patent publication US20170097335A1, “Methods for Diagnosing Impaired Absorption of Amino Acids, Monosaccharides and Fatty Acids” (The Texas A&M University System, priority 2015, published 2017).
Values belong to the compound of their own block, whether it stands above or below them.

Columns and labels:
[1] = Conversion of D- into L-phenylalanine; assay type: in vivo; conditions: observed in the pig
Text: This allows for an estimation of the potential disturbance of the digestion and splanchnic extraction measurements that also involve L-phenylalanine stable isotopes.

[2] = Ratio of enterally to intravenously provided L-allo-isoleucine isotopologues in blood samples, pig model; assay type: in vivo
Experimental: (§1) Both human and animal models were used for measuring protein absorption in the intestinal walls. The subjects were prepared with indwelling catheters to enable blood sampling. Stable isotopes of amino acids are obtained and made into sterile and pyrogen-free solutions. These isotopes may comprise L-allo-[^2H10, ^15N]-isoleucine, L-allo-[^13C6]-isoleucine, D-1-[^13C]phenylalanine, D-C^3C6]phenylalanine, D-[^2H5]-phenylalanine, D-[2-^2H]phenylalanine. A blood sample is taken or drawn from each subject for a measurement of the natural background. A bolus or continuous infusion of the stable isotope of the amino acid may be used. The labeled amino acid is administered orally to each subject and another isotope of the amino acid nutrient is administered intravenously to the same subject at the same time or within 8 hours. Blood samples are taken or drawn from each subject in the time window of about one to several hours. The labeled amino acids enrichments in each sample are analyzed by Mass Spectrometry. Results from the Mass Spectrometry are applied to a non-compartmental model for analysis and ratio determination. The metabolic phenotype is produced based on the measured amino acids production, consumption and metabolism.

[3] = Protein absorption in the intestinal walls: ratio of orally to intravenously provided isotopologue in blood, healthy volunteers; assay type: in vivo, human; conditions: FIG. 1
Experimental: as §1

- conversion rate of D- into L-phenylalanine [1]: 10%
Structure (SMILES): N[C@H](Cc1ccccc1)C(=O)O [D-phenylalanine]

- ratio of enterally administered over intravenously administered isotopologue ([2]; continuously fed pig (4 hours), over intravenously administered L-allo-[^2H10, ^15M-isoleucine, FIG. 4): about 0.8
- ratio of enterally administered over intravenously administered isotopologue ([2]; pigs with bolus feeding for 4 hours, over intravenously administered allo-Isoleucine[^2H10, ^15N](M9+M11), FIG. 5): about 0.8
Structure (SMILES): [13CH3][13CH2][13C@@H]([13CH3])[13C@H](N)[13C](=O)O [L-allo-[^13C6]-isoleucine]

- absorption ratio of orally provided isotopologue over intravenously provided isotopologue [3]: about 0.8
Structure (SMILES): CC[C@@H](C)[C@H](N)C(=O)O [L-allo-isoleucine]
